From US12521435B2, “Photodynamic therapy composition” (CASE WESTERN RESERVE UNIVERSITY, priority 2020, dated 2026)

Experiments:
PC3pip tumors [1] = assay: Multiple sequential PDT of tumors around 500 mm^3; format: in vivo, athymic nude mice; details: E64 intratumorally injected after bleaching; following 48 h (Day 2 and Day 3)
Experimental: Tumor size and mouse body weight was monitored every other day for a 30 day period. […] PDT was performed at 24 h, 2 days, and 3 days post-injection. Fluorescence before and after each PDT was monitored with Maestro, and intensity was quantified. One group of mice that received AuNPs-Pc158 were intratumorally injected with cathepsin inhibitor E64 after the first PDT exposure. After PDT, tumor size and mice body weight were monitored over 24 days.

PC3pip cells = assay: In vitro PDT, CCK8 assay; format: cell-based; details: E64 added to block the cleavage
Experimental: In vitro PDT was evaluated by CCK8 assay. PC3pip and PC3flu cells were seeded in 96-well plates at 1×10^4 cells/well. […] The 96-well plate was irradiated (Appolo Horizon projector, Acco Brands) with radiant exposure at 1 J/cm^2, after which the cells were incubated overnight. After incubation, CCK8 agent (DojinDo Laboratories) was added to each well (10 μL/well) and incubated for 3 h at 37° C., and absorbance at 450 nm was measured for each well.

PC3pip tumors [2] = assay: In vivo tumor targeting and intratumor Pc158 release (Maestro fluorescence imaging); design: species or system athymic nude mice; details: E64 intratumorally injected before AuNPs-Pc158 administration
Experimental: All animal procedures were performed according to Institutional Animal Care and Use Committee (JACUA)-approved protocols (2015-0033). Four- to five-week-old male athymic nude mice were subcutaneously implanted with PC3pip or PC3flu cells (100 μL, cells suspended in PBS/matrigel at 1×10^7 cells/mL) on the right and left flanks, respectively. When the tumors grew to a sufficient size, AuNPs-Pc158 conjugations were intravenously injected via the tail vein with a Pc158 dose of 0.1 mg/kg. The mice were preimaged before, and at 0.5 h, 1 h, 4 h, 8 h, 24 h, 48 h, 72 h, 96 h, and 120 h after NPs injection using the Maestro In vivo Imaging System (PerkinElmer) to monitor the delivery and release of Pc158. Multispectral images were unmixed into their component spectra (Pc158 autofluorescence and background). Component images were used to quantitatively determine the average Pc158 fluorescence intensity of the PC3pip and PC3flu tumors. Tumor tissues at 24 h postinjection were also collected, cut, and imaged to see the Pc158 distribution (details in the histology analysis section).

[3] = tested on: PSMA-positive PC3pip cells; assay: In vitro targeting and intracellular Pc158 release (confocal microscopy); format: cell-based; details: E64 added prior to coincubation with AuNPs
Experimental: Retrovirally transformed PSMA-positive PC3pip cells and transfection control PSMA-negative PC3flu cells were incubated for specific uptake and intracellular release studies. Both PC3pip and PC3flu cells were cultured in RPMI1640 medium (Invitrogen Life Technology) with 2 mmol/L L-glutamine, 10% FBS at 37° C., and 5% CO2. PC3pip and PC3flu cells were seeded in μ-Slide 8-Well Chamber Slide (ibidi) at 2000 cells/well. When the cells grew to 70% confluence, AuNPs-Pc158 conjugations were added at a Pc158 concentration of 1 μmol/L and coincubated for 1 h, 6 h, and 24 h. Then the cells were washed with PBS and stained with DAPI, LysoOrange, and MitoGreen (all from abcam) for 30 min at 37° C. and 5% CO2, after which they were washed again with PBS and replete medium added. The release of Pc158 and localization of nuclei, lysosomes, and mitochondria was observed under a Leica HyVolution SP8 confocal microscope (Leica Microsystem Inc.).

In the case of `CC(C)C[C@H](NC(=O)[C@H]1O[C@@H]1C(=O)O)C(=O)NCCCCN=C(N)N` [E64], the “Pc158 fluorescence in the tumor after first PDT” value (PC3pip tumors [1]) is reported as “fluorescence inhibition”, the “release of free Pc158 and PDT with AuNPs-Pc158” value (PC3pip cells) is reported as “significantly hindered” and the “Pc158 fluorescence in PC3pip tumors” value (PC3pip tumors [2]) is reported as “no Pc158 fluorescence was measurable”. For the same molecule, the “process of free Pc158 generation from AuNPs-Pc158 in cells” value [3] was “could be blocked”.
